We go through 1 compound from US12447167B2, “GM-CSF-producing t-cell control agent and Th1/Th2 immune balance regulator” (National Center of Neurology and Psychiatry, priority 2014, dated 2025).

The subject of this experiment is GM-CSF-producing CD4-positive memory T-cells. Kind of experiment: GM-CSF-producing CD4-positive memory T-cells in PBMCs of normal subjects after single oral dose (FACS). The experiment is classed as in vivo, human. The protocol:
A single dose of compound 31, which is a synthetic glycolipid of the present invention, described in the first aspect, i.e., (2S,3S,4R)-1-O-(α-D-galactosyl)-2-(N-tetracosanoylamino)-1,3,4-nonanetriol represented by the following formula (III), was orally administered to each of subjects of 4 cohorts (A, B, C, and D cohorts) each consisting of 3 normal subjects shown in Table 1 above after obtainment of informed consent.
The dose was set to 0.3 mg per person for A cohort, 1 mg per person for B cohort, 3 mg per person for C cohort, and 10 mg per person for D cohort.
Subsequently, T-cell subfractions were prepared from the peripheral blood of each subject by using the density gradient centrifugation method. First, a total of 20 mL of blood was collected from the vein of each subject 24 hours (1st day), 48 hours (2nd day), 72 hours (3rd day), and 168 hours (7th day) after the administration of compound 31 by using two 10-mL heparin sodium-containing vacuum blood collection tubes. For a control, 20 mL of blood was similarly collected from the vein of each subject one day before the administration of compound 31.
Next, 4 mL of Ficoll-Paque Plus (GE Healthcare Biosciences Corp.) was placed in each of four 15-mL conical tubes, and 10 mL of blood diluted twice with phosphate buffered saline (PBS) was gently layered thereon. Then, density gradient centrifugation was performed by centrifugation at 1800 rpm at ordinary temperature for 30 minutes. After the centrifugation, a supernatant containing plasma and platelet was discarded, and lymphocytes present at the boundary layer between the supernatant layer and the Ficoll-Paque Plus layer were recovered into a fresh 50-mL conical tube. The 50-mL conical tube was filled by adding PBS thereto, followed by centrifugation at 1800 rpm at ordinary temperature for 5 minutes. […] After a supernatant was removed by suction again, a single cell suspension was prepared by adding 1 mL of AIM-V medium (Life Technologies Corp.), and then, the number of cells was measured with a counting chamber. […]

As to `CCCCCCCCCCCCCCCCCCCCCCCC(=O)NC(COC1OC(CO)C(O)C(O)C1O)[C@H](O)C(O)CCCCC` (stereo in doubt) [compound 31, (2S,3S,4R)-1-O-(α-D-galactosyl)-2-(N-tetracosanoylamino)-1,3,4-nonanetriol], the “suppressive effects on CD4-positive memory T-cells” value (A cohort, 0.3 mg single oral (low dose)) is “high suppressive effects”. In addition, for the setting “C and D cohorts (3 mg, 10 mg), 1 day after administration, transient”, the “growth of GM-CSF-producing CD4-positive memory T-cells” value is “promoted”. For the same compound, the “proportion of GM-CSF-producing CD4-positive memory T-cells in PBMCs” value (single oral dose, all cohorts (0.3, 1, 3, 10 mg), after administration vs pre-administration value (day-1)) is listed as “decreased”.
